Laboratory results: US6365549B2, “Methods of blocking an ethylene response in plants using cyclopropene derivatives” (North Carolina State University, priority 1999, dated 2002)

System: Patio variety tomato seedlings
Test: Tomato epinasty test, volatile gas treatment
Assay type: in vivo
Settings: ethylene 10 ppm v/v, scale of 0 to 10, 10 complete protection, 0 no protection
Method: The test procedure is designed to determine the ability of an compound according to the present invention to block the epinastic growth response induced by ethylene in tomato plants when the compound is administered either as a volatile gas or as a component of a spray solution. Treatment chambers are of an appropriate size for the test plants and are airtight. Each is fitted with a reusable septum to be used for injection of ethylene. Test plants are Patio variety tomato seedlings planted two plants per three inch square plastic pot. Volatile gas treatment entails placing two pots of Patio var. tomatoes into a polystyrene 4.8 L volume treatment chamber along with one-half (upper or lower section) of a 50×9 mm plastic Petri dish containing a Gelman filter pad. The appropriate amount of experimental compound, dissolved in 1.0 ml acetone, is pipetted onto the filter pad and the chamber immediately sealed. Four hours later ethylene gas equal to 10 ppm v/v final concentration is injected into the sealed chamber. Sixteen hours later the chambers are opened in an exhaust hood, allowed to air and the plants scored visually for the degree of protection against ethylene-induced epinasty conferred by the experimental compound when compared to ethylene treated and untreated controls on a scale of 0 to 10. A rating of 10 means complete protection. A rating of 0 means no protection from the effects of ethylene.

Molecule	Protection against ethylene-induced epinasty, rating (Gas 10 ppm)	Protection against ethylene-induced epinasty, rating (Gas 1000 ppm)	Protection against ethylene-induced epinasty, rating (Gas 500 ppm)	Protection against ethylene-induced epinasty, rating (Gas 750 ppm)
CC(CCC1=CC1)CC(C)(C)C (stereo not drawn) [Compound 35]	10			
COCCCCCCCC1=CC1 [Compound 3, 1-(7-Methoxyheptyl)-cyclopropene]	9.5			
CCCCCC#CCCCCC1=CC1 [Compound 4, 1-(Undec-5-ynl)-cyclopropene]	10			
CCC(=O)OCCC1=CC1 [Compound 33]	0	10		
CCC=CCC1=C(CCCCC)C1 [Compound 17, 1-Pent-2-enyl-2-pentyl-cyclopropene]	0	10		
C=CCCCCCCC1=CC1 [Compound 19, 1-(Oct-7-enyl)-cyclopropene]	10			
CCCCCCCCCCCC1=CC1 [Compound 27]	10			
CCCCCCCCCCCCCCC1=CC1 [Compound 42]	2	10		
CCCCCCOCC1=CC1 [Compound 14, 1-Hexyloxymethyl-cyclopropene]	10			
CCCCCCCCCC1=CC1 [Compound 24]	9.5			
N#CCCCCCCCC1=CC1 [Compound 10, 1-(7-Cyanoheptyl)-cyclopropene]	2	10		
CCCCCC1(CCCCC)C=C1 [Compound 16, 3,3-Dipentyl-cyclopropene]	0	10		
CCN(CC)CCCCCCCC1=CC1 [Compound 11, 1-(7-N,N-Diethylaminoheptyl)-cyclopropene]	3	10		
CC(C)(O)CCC1=CC1 [Compound 20, 4-(1-Cyclopropenyl)-2-methylbutan-2-ol]	0	8		
CCCCCC(C)CC1=CC1 (stereo not drawn) [Compound 32]	9.5			
CCCCCCCC1=CC1 [Compound 26]	10			
CC(=O)O.CCN(CC)CCCCCCCC1=CC1 [Compound 12, 1-(7-N,N,-Diethylammoniumheptyl)-cyclopropene Acetate]	2	10		
CCCCC(CC)CCC1=CC1 (stereo not drawn) [Compound 28]	9			
CC(C)N.O=C(O)CCCCCCC1=CC1 [Compound 8, 7-Cycloprop-1-enyl-heptanoic Acid Isopropylamine Salt]	0		8	
CC(=O)CCCCCCC1=CC1 [Compound 46, 8-Cycloprop-1-enyl-octan-2-one]	3	9		
1-Pentyloxyethyl-cyclopropene [Compound 15]	10			
CC(C)CCCCCC1=CC1 [Compound 34]	10			

Molecule	Protection against ethylene-induced epinasty, rating (Gas 10 ppm)	Protection against ethylene-induced epinasty, rating (Gas 1000 ppm)	Protection against ethylene-induced epinasty, rating (Gas 500 ppm)	Protection against ethylene-induced epinasty, rating (Gas 750 ppm)
CON=C(C)CCCCCCC1=CC1 (single isomer, unassigned) [Compound 47, 8-Cycloprop-1-enyl-octan-2-one O-methyl Oxime]	9.5			
CCCCN(CCCC)CC1=CC1 [Compound 41]	3	10		
OCCCCCCCC1=CC1 [Compound 5, 1-(7-Hydroxyheptyl)-cyclopropene]	0	10		
CCCCCCCCCCCCC1=CC1 [Compound 40]	4	10		
CCCCCCCCCCCCCC1=CC1 [Compound 29]	3.5	10		
COCCOCCOCC1=CC1 [Compound 30]	3	10		
CCOC(=O)CCCCCCC1=CC1 [Compound 9, 7-Cycloprop-1-enyl-heptanoic Acid Ethyl Ester]	4			
Hex-5-yne 2-octylcycloprop-2-ene-1-carboxylate [Compound 22]	0			9
CCCCCCCCCCC1=CC1 [Compound 25]	9			
CCCCCCCCC1=C(CCCCCCCC(=O)OC)C1 [Compound 21, Methyl Sterculate]	5	9		
FC(F)(F)CCCCC1=CC1 [Compound 37]	10			
CCCCCC1=CC1 [Compound 31]	10			
CCN(CC)C(=O)CCCCCCC1=CC1 [Compound 48, 7-Cycloprop-1-enyl-heptanoic Acid Diethylamide]	0	7		
O=C(O)CCCCCCC1=CC1 [Compound 7, 7-Cycloprop-1-enyl-heptanoic Acid]	3	8		
CCCCCCC1=CC1CCCCCC (stereo not drawn) [Compound 44]	0	10		
CC[N+](C)(CC)CCCCCCCC1=CC1.[I-] [Compound 13, 1-(7-N,N,N-Diethylmethylammoniumheptyl)-cyclopropene Iodide]	6			
CCCCCCCCC1C=C1 [Compound 2, 3-Octylcyclopropene]	0	10		
CCCCCCCCCCCCCCCC1=CC1 [Compound 38]	4.5	10		
CCCCCC1=C(CCCCC)C1 [Compound 45]	0	10		
CC(C)(C)CCC1=CC1 [Compound 43]	10			
CCC=CCC1=CC1(CCCCC)CCCCC [Compound 18, 1-Pent-2-enyl-3,3-dipentyl-cyclopropene]	0	10		
CC(=O)OCCCCCCCC1=CC1 [Compound 6, 1-(7-Acetoxyheptyl)-cyclopropene]	0	10		
